The source of these data is patent US8633196B2, “Benzenesulfonamide compounds, method for synthesizing same, and use thereof in medicine as well as in cosmetics” (Galderma Research & Development, priority 2009, dated 2014).

Molecules are shown by their SMILES. Read-outs that look alike come from different tables or passages of the source. Where only a bound is given, the exact number is not on record here.

The target in test [1] is T1, TACE enzyme (Homo sapiens (Human), UniProt P78536). As to the kind of experiment: Enzymatic assay for TACE inhibition (fluorescent substrate). The test is classed as biochemical.
Target sequence in this assay (P78536 215-824 limits assumed): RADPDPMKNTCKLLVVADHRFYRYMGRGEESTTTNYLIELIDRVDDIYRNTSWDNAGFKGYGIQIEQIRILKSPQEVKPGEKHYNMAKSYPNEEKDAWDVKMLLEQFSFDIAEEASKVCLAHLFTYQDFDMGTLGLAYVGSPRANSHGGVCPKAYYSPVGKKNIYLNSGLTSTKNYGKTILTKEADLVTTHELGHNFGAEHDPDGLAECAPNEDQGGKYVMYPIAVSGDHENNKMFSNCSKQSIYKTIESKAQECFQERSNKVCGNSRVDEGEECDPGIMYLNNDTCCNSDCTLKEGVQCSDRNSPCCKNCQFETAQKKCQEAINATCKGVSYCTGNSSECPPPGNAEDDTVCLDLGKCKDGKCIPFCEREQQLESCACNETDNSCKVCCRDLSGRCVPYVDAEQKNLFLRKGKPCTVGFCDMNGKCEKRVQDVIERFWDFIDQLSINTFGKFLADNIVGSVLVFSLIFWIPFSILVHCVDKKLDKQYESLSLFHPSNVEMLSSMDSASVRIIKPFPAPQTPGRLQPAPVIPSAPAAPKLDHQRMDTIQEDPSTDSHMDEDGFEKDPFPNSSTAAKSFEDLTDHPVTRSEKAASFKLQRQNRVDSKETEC
The target in another test is MMP1 (Homo sapiens (Human), UniProt P03956). As to the kind of experiment: Selectivity assay, MMP1. The test is classed as biochemical.
Sequence of MMP1 (P03956 100-469, species assumed): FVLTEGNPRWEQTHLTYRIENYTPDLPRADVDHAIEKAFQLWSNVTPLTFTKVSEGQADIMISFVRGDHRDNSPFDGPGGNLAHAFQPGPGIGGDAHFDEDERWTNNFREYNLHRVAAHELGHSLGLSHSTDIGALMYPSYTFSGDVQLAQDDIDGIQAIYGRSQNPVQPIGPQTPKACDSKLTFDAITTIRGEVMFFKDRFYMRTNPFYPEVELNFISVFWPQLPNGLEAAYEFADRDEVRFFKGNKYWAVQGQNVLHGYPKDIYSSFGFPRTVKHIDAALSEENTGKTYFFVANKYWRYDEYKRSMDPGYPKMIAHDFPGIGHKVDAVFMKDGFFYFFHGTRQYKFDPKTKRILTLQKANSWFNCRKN
The target of a further test is MMP3 (Homo sapiens (Human), UniProt P08254). In words: Selectivity assay, MMP3. It counts as biochemical.
Sequence of MMP3 (P08254 100-477, species assumed): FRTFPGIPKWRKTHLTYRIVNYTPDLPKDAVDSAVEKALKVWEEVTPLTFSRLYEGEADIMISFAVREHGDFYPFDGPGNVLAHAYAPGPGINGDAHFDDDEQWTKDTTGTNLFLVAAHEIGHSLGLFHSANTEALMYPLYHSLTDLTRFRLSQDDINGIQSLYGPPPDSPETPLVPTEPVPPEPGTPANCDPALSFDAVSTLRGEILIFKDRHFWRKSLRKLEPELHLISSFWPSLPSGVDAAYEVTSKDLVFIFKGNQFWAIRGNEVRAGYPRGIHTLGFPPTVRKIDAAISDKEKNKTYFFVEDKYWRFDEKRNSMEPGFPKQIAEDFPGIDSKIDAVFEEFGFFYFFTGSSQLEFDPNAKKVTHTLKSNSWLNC
In a further test the target is MMP9 (Homo sapiens (Human), UniProt P14780). As to the kind of experiment: Selectivity assay, MMP9. It counts as biochemical.
Sequence of MMP9 (P14780 94-707, species assumed): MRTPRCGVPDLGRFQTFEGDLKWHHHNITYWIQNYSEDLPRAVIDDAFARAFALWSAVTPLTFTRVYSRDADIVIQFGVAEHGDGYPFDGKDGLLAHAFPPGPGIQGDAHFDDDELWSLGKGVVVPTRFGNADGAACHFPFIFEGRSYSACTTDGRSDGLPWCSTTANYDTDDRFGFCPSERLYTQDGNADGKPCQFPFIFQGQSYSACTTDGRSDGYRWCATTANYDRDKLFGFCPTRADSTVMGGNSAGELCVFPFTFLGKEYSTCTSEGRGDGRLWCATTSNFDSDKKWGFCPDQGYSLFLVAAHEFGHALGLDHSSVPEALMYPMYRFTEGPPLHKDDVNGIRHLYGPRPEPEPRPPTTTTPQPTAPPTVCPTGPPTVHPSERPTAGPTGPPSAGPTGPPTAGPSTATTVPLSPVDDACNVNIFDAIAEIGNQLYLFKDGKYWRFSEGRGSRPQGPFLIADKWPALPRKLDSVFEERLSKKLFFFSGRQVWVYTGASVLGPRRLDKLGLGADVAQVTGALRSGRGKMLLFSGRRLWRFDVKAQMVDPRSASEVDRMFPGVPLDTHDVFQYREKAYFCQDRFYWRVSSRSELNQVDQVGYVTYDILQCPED
The target of a further test is ADAM9 (Homo sapiens (Human), UniProt Q13443). As to the kind of experiment: Selectivity assay, ADAM9. It counts as biochemical.
Sequence of ADAM9 (Q13443 29-819, species assumed): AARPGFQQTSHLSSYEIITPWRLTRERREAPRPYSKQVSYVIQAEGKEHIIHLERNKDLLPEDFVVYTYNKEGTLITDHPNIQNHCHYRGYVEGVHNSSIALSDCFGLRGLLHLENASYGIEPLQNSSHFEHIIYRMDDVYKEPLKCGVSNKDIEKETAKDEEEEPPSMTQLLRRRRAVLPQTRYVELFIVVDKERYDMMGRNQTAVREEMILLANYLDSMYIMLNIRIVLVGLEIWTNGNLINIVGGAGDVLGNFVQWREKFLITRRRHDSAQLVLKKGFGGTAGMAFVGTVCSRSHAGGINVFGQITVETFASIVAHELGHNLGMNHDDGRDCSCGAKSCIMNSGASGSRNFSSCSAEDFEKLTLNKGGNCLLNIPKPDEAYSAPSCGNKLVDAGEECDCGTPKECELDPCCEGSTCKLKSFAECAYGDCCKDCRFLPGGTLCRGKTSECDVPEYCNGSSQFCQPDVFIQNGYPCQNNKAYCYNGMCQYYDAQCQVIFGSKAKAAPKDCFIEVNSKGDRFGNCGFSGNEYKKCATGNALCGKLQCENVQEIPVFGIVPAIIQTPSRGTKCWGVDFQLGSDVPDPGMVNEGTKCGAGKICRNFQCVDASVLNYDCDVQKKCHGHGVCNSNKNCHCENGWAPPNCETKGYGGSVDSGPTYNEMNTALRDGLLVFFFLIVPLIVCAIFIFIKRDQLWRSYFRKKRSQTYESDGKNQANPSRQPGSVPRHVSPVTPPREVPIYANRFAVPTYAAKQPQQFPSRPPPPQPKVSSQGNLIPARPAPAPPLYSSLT
Test [2] has as its target T1, TACE enzyme. As to conditions: WO 00/44709; page 251, table 10, example 61; cited from earlier work.
Target sequence in this assay (P78536 whole entry, looked up): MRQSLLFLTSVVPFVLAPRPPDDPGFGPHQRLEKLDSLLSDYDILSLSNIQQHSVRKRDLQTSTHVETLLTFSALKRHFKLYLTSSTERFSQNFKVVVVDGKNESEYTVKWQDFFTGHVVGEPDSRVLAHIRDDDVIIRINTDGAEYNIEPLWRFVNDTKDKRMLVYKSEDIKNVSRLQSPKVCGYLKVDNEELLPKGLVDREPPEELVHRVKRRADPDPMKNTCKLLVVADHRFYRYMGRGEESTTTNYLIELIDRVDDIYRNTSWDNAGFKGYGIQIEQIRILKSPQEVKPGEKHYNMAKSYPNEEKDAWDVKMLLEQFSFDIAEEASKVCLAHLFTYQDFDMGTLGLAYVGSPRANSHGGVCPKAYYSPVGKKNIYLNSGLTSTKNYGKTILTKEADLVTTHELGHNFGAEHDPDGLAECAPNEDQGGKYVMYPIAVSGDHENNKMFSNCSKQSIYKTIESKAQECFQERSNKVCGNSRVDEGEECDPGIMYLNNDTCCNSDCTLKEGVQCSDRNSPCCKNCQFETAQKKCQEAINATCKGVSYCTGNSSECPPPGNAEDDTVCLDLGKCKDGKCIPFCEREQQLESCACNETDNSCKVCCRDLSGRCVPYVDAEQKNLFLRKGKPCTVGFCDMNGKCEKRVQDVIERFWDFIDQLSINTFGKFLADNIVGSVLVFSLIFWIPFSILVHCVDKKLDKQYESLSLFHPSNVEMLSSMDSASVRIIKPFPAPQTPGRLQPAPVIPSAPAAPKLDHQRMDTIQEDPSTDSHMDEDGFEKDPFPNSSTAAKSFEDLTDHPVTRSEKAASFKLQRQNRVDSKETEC
The target of another test is ADAM10 (Homo sapiens (Human), UniProt O14672). As to the kind of experiment: Selectivity assay, ADAM10.
Sequence of ADAM10 (O14672 214-748, species assumed): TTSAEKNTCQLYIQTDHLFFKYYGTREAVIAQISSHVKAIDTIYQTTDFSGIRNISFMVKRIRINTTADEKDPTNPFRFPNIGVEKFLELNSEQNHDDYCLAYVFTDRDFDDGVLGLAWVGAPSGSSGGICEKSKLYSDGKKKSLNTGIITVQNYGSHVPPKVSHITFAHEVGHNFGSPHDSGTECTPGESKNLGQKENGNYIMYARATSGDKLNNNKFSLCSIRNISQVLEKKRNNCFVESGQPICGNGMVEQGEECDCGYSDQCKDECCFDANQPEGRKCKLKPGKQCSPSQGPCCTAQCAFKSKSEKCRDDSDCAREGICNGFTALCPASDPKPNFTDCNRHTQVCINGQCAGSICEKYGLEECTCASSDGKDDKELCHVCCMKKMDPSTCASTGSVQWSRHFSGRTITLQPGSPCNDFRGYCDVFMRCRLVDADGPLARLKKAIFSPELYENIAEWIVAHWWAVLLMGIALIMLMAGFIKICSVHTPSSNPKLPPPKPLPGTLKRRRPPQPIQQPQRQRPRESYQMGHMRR
The mark [3] stands for this setting: enzymatic assay, substrate 40 μM, read-out: IC50-TACE.
Where [4] appears, read: TACE column of selectivity table, read-out: IC50 (nM) TACE.

As for `CC1(C)SCCN(S(=O)(=O)c2ccc(OCC#CCO)cc2)[C@H]1C(=O)NO` [Apratastat, reference compound], the IC50 at TACE enzyme [1] (read-out: IC50 (nM) TACE, TACE column of selectivity table) was found to be 5 nM; against MMP1, 145 nM; on MMP3 it was 10 nM; against MMP9, 82 nM; at ADAM9, 85 nM; against ADAM10 it was 71 nM. Further, at TACE enzyme [2], the “selectivity for the TACE enzyme compared with certain MMPs” value is given as “not selective”.

As for `CC#CCOc1ccc(S(=O)(=O)NC[C@@H](C(=O)NO)N2CCN(S(C)(=O)=O)CC2)cc1` [Example 2, (S)-3-(4-but-2-ynyloxybenzenesulfonylamino)-N-hydroxy-2-(4-methanesulfonylpiperazin-1-yl)propionamide], on TACE enzyme [1], the “% TACE inhibition at 10 μM” value was 100%. In addition, the IC50 on TACE enzyme [1] (setting [3]) stood at 32 nM.

Take `Cc1cc(COc2ccc(S(=O)(=O)NC[C@@H](C(=O)NO)N3CCN(S(C)(=O)=O)CC3)cc2)c2ccccc2n1` [Example 5, (S)-N-Hydroxy-2-(4-methanesulfonylpiperazin-1-yl)-3-[4-(2-methylquinolin-4-ylmethoxy)benzenesulfonylamino]propionamide]: the IC50 on TACE enzyme [1] (setting [4]) came out at 21 nM; on TACE enzyme [1] (setting [3]), 21 nM; at MMP1, 5100 nM; against MMP3, 3200 nM. Besides, the “% TACE inhibition at 10 μM” value at TACE enzyme [1] is reported as 99%.

Consider `CS(=O)(=O)N1CCN([C@@H](CNS(=O)(=O)c2ccc(OCc3cccc4ccccc34)cc2)C(=O)NO)CC1` [Example 6, (S)-N-Hydroxy-2-(4-methanesulfonylpiperazin-1-yl)-3-[4-(naphthalen-1-ylmethoxy)benzenesulfonylamino]propionamide], for which the “% TACE inhibition at 10 μM” value on TACE enzyme [1] came out at 99%. Also, the IC50 at TACE enzyme [1] (setting [3]) was found to be 52 nM.

On to `CS(=O)(=O)N1CCN([C@@H](CNS(=O)(=O)c2ccc(OCc3cccc(C#N)c3)cc2)C(=O)NO)CC1` [Example 8, (S)-3-[4-(3-Cyanobenzyloxy)benzenesulfonylamino]-N-hydroxy-2-(4-methanesulfonylpiperazin-1-yl)propionamide], for which the “% TACE inhibition at 10 μM” value at TACE enzyme [1] is 100%. For the same compound, the IC50 at TACE enzyme [1] (setting [3]) is 127 nM.

In the case of `CS(=O)(=O)N1CCN([C@@H](CNS(=O)(=O)c2ccc(OCc3ccc(C#N)cc3)cc2)C(=O)NO)CC1` [Example 9, (S)-3-[4-(4-Cyanobenzyloxy)benzenesulfonylamino]-N-hydroxy-2-(4-methanesulfonylpiperazin-1-yl)propionamide], at TACE enzyme [1], the “% TACE inhibition at 10 μM” value is recorded as 100%. Further, the IC50 on TACE enzyme [1] (setting [3]) stood at 147 nM.

With `Cc1cc(COc2ccc(S(=O)(=O)NC[C@@H](C(=O)NO)N3CCN(C(=O)OCc4ccccc4)CC3)cc2)c2ccccc2n1` [Example 10, Benzyl 4-{(S)-1-hydroxycarbamoyl-2-[4-(2-methylquinolin-4-ylmethoxy)benzenesulfonylamino]ethyl}piperazine-1-carboxylate], the “% TACE inhibition at 10 μM” value at TACE enzyme [1] is recorded as 93%.

For the compound `CS(=O)(=O)N1CCN([C@@H](CNS(=O)(=O)c2ccc(OCc3ccnc(-c4ccccc4)c3)cc2)C(=O)NO)CC1` [Example 11, (S)-N-Hydroxy-2-(4-methanesulfonylpiperazin-1-yl)-3-[4-(2-phenylpyridin-4-ylmethoxy)benzenesulfonylamino]propionamide], on TACE enzyme [1], the “% TACE inhibition at 10 μM” value stood at 93%. For the same compound, the IC50 on TACE enzyme [1] (setting [3]) worked out at 24 nM.

Regarding `Cc1cc(COc2ccc(S(=O)(=O)NC[C@@H](C(=O)NO)N3CCNCC3)cc2)c2ccccc2n1` [Example 13, (S)-N-Hydroxy-3-[4-(2-methylquinolin-4-ylmethoxy)benzenesulfonylamino]-2-piperazin-1-ylpropionamide], the “% TACE inhibition at 10 μM” value at TACE enzyme [1] was determined as 96%. Moreover, the IC50 on TACE enzyme [1] (setting [3]) amounted to 108 nM.

Turning to `Cc1cc(COc2ccc(S(=O)(=O)NC[C@@H](C(=O)NO)N3CCN(S(C)(=O)=O)CC3)cc2)c2ccccc2n1.Cl` [Example 14, (S)-N-Hydroxy-2-(4-methanesulfonylpiperazin-1-yl)-3-[4-(2-methylquinolin-4-ylmethoxy)benzenesulfonylamino]propionamide hydrochloride], the “% TACE inhibition at 10 μM” value on TACE enzyme [1] amounted to 98%. On TACE enzyme [1] (read-out: IC50-TACE, enzymatic assay, substrate 40 μM, listed as ex14, hydrochloride), the IC50 amounted to 64 nM.

For the compound `CS(=O)(=O)N1CCN([C@@H](CNS(=O)(=O)c2ccc(OCc3ccnc4ccccc34)cc2)C(=O)NO)CC1` [Example 16, (S)-N-Hydroxy-2-(4-methanesulfonylpiperazin-1-yl)-3-[4-(quinolin-4-ylmethoxy)benzenesulfonylamino]propionamide], at TACE enzyme [1], the “% TACE inhibition at 10 μM” value turned out to be 96%. For the same compound, the IC50 at TACE enzyme [1] (setting [3]) is 168 nM.

Turning to `Cc1cc(COc2ccc(S(=O)(=O)NC[C@@H](C(=O)NO)N3CCN(Cc4ccccc4)CC3)cc2)c2ccccc2n1` [Example 17, (S)-2-(4-Benzylpiperazin-1-yl)-N-hydroxy-3-[4-(2-methylquinolin-4-ylmethoxy)benzenesulfonylamino]propionamide], the “% TACE inhibition at 10 μM” value on TACE enzyme [1] is on record as 91%. For the same compound, on TACE enzyme [1] (setting [3]), the IC50 amounted to 62 nM.

With `Cc1cc(COc2ccc(S(=O)(=O)NC[C@@H](C(=O)NO)N3CCN(Cc4ccc(F)cc4)CC3)cc2)c2ccccc2n1` [Example 18, (S)-2-[4-(4-Fluorobenzyl)piperazin-1-yl]-N-hydroxy-3-[4-(2-methylquinolin-4-ylmethoxy)benzenesulfonylamino]propionamide], the IC50 is 67 nM on TACE enzyme [1] (setting [4]); 67 nM at TACE enzyme [1] (setting [3]); 670 nM against MMP1; 849 nM on MMP3; > 10000 nM against MMP9; 9250 nM against ADAM9. Further, on ADAM10, the IC50 was > 10000 nM. Also, the “% TACE inhibition at 10 μM” value on TACE enzyme [1] worked out at 90%.

In the case of `CCN1CCN([C@@H](CNS(=O)(=O)c2ccc(OCc3cc(C)nc4ccccc34)cc2)C(=O)NO)CC1` [Example 19, (S)-2-(4-ethyl-piperazin-1-yl)-N-hydroxy-3-[4-(2-methylquinolin-4-yl-methoxy)benzenesulfonylamino]propionamide], the IC50 at TACE enzyme [1] (setting [4]) is 41 nM; at TACE enzyme [1] (setting [3]) it was 41 nM; against MMP1, 2300 nM; at MMP3 it was 1770 nM; against MMP9, > 10000 nM; at ADAM9 it was 3050 nM. Moreover, on ADAM10, the IC50 is > 10000 nM. Besides, on TACE enzyme [1], the “% TACE inhibition at 10 μM” value came out at 92%.

Regarding `Cc1cc(COc2ccc(S(=O)(=O)NC[C@@H](C(=O)NO)N3CCN(Cc4ccc(C(F)(F)F)cc4)CC3)cc2)c2ccccc2n1` [Example 20, (S)-N-Hydroxy-3-[4-(2-methylquinolin-4-ylmethoxy)benzenesulfonylamino]-2-[4-(4-trifluoromethylbenzyl)piperazin-1-yl]propionamide], the IC50 is 3940 nM against MMP1; 4780 nM against MMP3; > 10000 nM against MMP9; > 10000 nM against ADAM9; > 10000 nM against ADAM10.

In the case of `Cc1ccc(CN2CCN([C@@H](CNS(=O)(=O)c3ccc(OCc4cc(C)nc5ccccc45)cc3)C(=O)NO)CC2)cc1` [Example 21, (S)-N-hydroxy-2-[4-(4-methylbenzyl)piperazin-1-yl]-3-[4-(2-methylquinolin-4-ylmethoxy)benzenesulfonylamino]propionamide], the IC50 on TACE enzyme [1] (setting [4]) was 63 nM; on TACE enzyme [1] (setting [3]), 63 nM; at MMP1, 1170 nM; on MMP3, 887 nM. Besides, the “% TACE inhibition at 10 μM” value on TACE enzyme [1] is on record as 97%.

With `Cc1cc(COc2ccc(S(=O)(=O)NC[C@@H](C(=O)NO)N3CCN(C(=O)C(C)C)CC3)cc2)c2ccccc2n1` [Example 23, (S)-N-hydroxy-2-(4-isobutyrylpiperazin-1-yl)-3-[4-(2-methylquinolin-4-ylmethoxy)-benzenesulfonylamino]propionamide], the IC50 on TACE enzyme [1] (setting [4]) turned out to be 53 nM; at TACE enzyme [1] (setting [3]), 53 nM; against MMP1 it was 2220 nM; against MMP3, 1060 nM. Further, the “% TACE inhibition at 10 μM” value on TACE enzyme [1] stood at 97%.

For `Cc1cc(COc2ccc(S(=O)(=O)NC[C@@H](C(=O)NO)N3CCN(S(=O)(=O)CC(C)C)CC3)cc2)c2ccccc2n1` [Example 24, (S)-N-hydroxy-2-[4-(2-methylpropane-1-sulfonyl)piperazin-1-yl]-3-[4-(2-methylquinolin-4-ylmethoxy)benzenesulfonylamino]propionamide], the figures for the IC50 against MMP1 and on MMP3 were 2060 nM and 1880 nM, respectively.

Regarding `Cc1cc(COc2ccc(S(=O)(=O)NC[C@@H](C(=O)NO)N3CCN(S(=O)(=O)C(C)C)CC3)cc2)c2ccccc2n1` [Example 26, (S)-N-hydroxy-3-[4-(2-methylquinolin-4-ylmethoxy)benzenesulfonylamino]-2-[4-(propane-2-sulfonyl)piperazin-1-yl]propionamide], the IC50 on TACE enzyme [1] (setting [4]) was 16 nM; at TACE enzyme [1] (setting [3]) it was 33 nM; against MMP1, 969 nM; against MMP3, 574 nM. Also, on TACE enzyme [1], the “% TACE inhibition at 10 μM” value worked out at 98%.

For orientation: IC50 means the point on the concentration scale where inhibition reaches its midpoint.
